The record followed here is patent US20150284375A1 (AJINOMOTO CO., INC., priority 2012, published 2015).

pIC50: −log10 of the molar value.

The target in this assay is T1, human TRPA1 (Homo sapiens, UniProt O75762).
T1 construct: expressed in transfected cells; host or cells: Human embryonic kidney-derived 293T cells, transiently transfected with the pcDNA3.1/zeo(+) human TRPA1 plasmid
T1 sequence (O75762 whole entry): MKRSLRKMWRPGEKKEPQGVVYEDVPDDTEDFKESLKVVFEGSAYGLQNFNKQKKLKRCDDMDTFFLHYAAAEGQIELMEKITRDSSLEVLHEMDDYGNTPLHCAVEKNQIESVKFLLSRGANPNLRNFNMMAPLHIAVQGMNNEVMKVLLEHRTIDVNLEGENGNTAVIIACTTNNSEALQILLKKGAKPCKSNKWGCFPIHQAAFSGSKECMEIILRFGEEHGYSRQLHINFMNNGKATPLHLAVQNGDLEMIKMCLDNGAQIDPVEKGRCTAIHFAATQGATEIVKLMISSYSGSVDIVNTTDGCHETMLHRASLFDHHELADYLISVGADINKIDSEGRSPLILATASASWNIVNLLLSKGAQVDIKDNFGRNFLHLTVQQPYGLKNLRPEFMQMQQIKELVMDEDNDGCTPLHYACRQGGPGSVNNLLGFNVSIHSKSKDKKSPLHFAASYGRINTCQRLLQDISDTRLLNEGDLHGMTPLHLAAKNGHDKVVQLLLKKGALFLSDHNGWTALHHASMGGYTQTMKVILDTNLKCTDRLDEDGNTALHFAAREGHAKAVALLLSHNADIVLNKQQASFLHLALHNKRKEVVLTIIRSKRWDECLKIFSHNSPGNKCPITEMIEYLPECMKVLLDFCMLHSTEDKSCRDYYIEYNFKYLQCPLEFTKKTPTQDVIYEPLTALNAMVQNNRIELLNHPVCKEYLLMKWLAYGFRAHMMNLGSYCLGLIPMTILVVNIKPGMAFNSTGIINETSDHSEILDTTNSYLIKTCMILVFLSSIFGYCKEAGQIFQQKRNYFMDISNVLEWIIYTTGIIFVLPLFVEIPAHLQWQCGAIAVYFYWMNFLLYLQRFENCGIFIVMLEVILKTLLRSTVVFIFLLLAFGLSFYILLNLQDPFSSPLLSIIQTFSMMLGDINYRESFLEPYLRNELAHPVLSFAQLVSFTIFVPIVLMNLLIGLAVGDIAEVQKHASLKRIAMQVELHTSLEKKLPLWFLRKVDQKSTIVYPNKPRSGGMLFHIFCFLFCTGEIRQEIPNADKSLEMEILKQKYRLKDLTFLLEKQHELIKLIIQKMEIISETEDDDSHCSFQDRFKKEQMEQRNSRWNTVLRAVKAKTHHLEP
In words: Measurement of TRPA1 antagonist activity (intracellular calcium increase, FLIPR, allylisothiocyanate stimulation). Type of assay: cell-based. As to conditions: allylisothiocyanate 20 μM stimulation, FLIPR calcium assay; read-out: antagonism hTRPA1. Summed up: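 IC50 derives from a sigmoid fit of inhibition of the 5-min FLIPR fluorescence change evoked by 20 μM allylisothiocyanate, normalized between agonist and buffer responses. Test substance, diluted in HBSS/20 mM HEPES pH 7.2 plus 0.1% BSA, was applied 10 min beforehand at room temperature to Calcium4-loaded 293T cells transiently expressing human TRPA1.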
Background: Calcium flux is commonly read through the fluorescence of an indicator in the cells.
`O=C(NCc1cccc(OCc2ccc(C(F)(F)F)cc2)c1)[C@@H]1[C@H]2CC[C@H](C2)N1S(=O)(=O)c1ccc(F)cc1` [Example 214, (1S,2S,4R)-3-(4-fluorophenyl)sulfonyl-N-[[3-[[4-(trifluoromethyl)phenyl]methoxy]phenyl]methyl]-3-azabicyclo[2.2.1] heptane-2-carboxamide]: the pIC50 is 6.92. Next, `O=C(NCc1cccc(OCc2ccc(C(F)(F)F)cc2)c1)[C@@H]1[C@H]2CC[C@H](C2)N1S(=O)(=O)c1ccsc1` [Example 215, (1S,2S,4R)-3-(3-thienylsulfonyl)-N-[[3-[[4-(trifluoromethyl)phenyl]methoxy]phenyl]methyl]-3-azabicyclo[2.2.1]heptane-2-carboxamide]: 6.96; `O=C(NCc1cccc(OCc2ccc(C(F)(F)F)cc2)c1)[C@@H]1CCCN1S(=O)(=O)c1ccncc1` [Example 216, (2S)-1-(4-pyridylsulfonyl)-N-[[3-[[4-(trifluoromethyl)phenyl]methoxy]phenyl]methyl]pyrrolidine-2-carboxamide]: 7.22; `O=C(NCc1cccc(OCc2ccc(C(F)(F)F)cc2)c1)[C@@H]1CCCN1S(=O)(=O)c1cncs1` [Example 217, (2S)-1-thiazol-5-ylsulfonyl-N-[[3-[[4-(trifluoromethyl)phenyl]methoxy]phenyl]methyl]pyrrolidine-2-carboxamide]: 6.03.

In the case of `O=C(NCc1cccc(OCc2ccc(C(F)(F)F)cc2)c1)[C@@H]1CCCN1S(=O)(=O)c1cscn1` [Example 218, (2S)-1-thiazol-4-ylsulfonyl-N-[[3-[[4-(trifluoromethyl)phenyl]methoxy]phenyl]methyl]pyrrolidine-2-carboxamide], the pIC50 was 6.08. Regarding `O=C(NCc1cccc(OCc2ccc(C(F)(F)F)cc2)c1)[C@@H]1CCCN1S(=O)(=O)c1nc2ccccc2s1` [Example 219, (2S)-1-(1,3-benzothiazol-2-ylsulfonyl)-N-[[3-[[4-(trifluoromethyl)phenyl]methoxy]phenyl]methyl]pyrrolidine-2-carboxamide], the pIC50 is 6.92.

Consider `O=C(NCc1cccc(OCc2ccc(C(F)(F)F)cc2)c1)[C@@H]1CCCN1S(=O)(=O)n1ccnc1` [Example 220, (2S)-1-imidazol-1-ylsulfonyl-N-[[3-[[4-(trifluoromethyl)phenyl]methoxy]phenyl]methyl]pyrrolidine-2-carboxamide], for which the pIC50 was 6.72.
